Experimental data taken from patent US11504349B2, “Composition for preventing or treating TNF-related diseases, containing novel derivative as active ingredient, and method for inhibiting TNF activity by using same” (ILAB, priority 2017, dated 2022).
pIC50, pKd: −log10 of the molar value.

Key:
TNF-etanercept binding = TNF-etanercept binding (Homo sapiens, UniProt P01375); test: SPR competition: inhibition of TNF-etanercept binding; conditions: etanercept alone vs with compound, FIG. 2e
Protocol: The competition of binding of TNF-inhibiting biopharmaceutical etanercept and the derivative compounds to TNF was measured by SPR assay. Based on the results of pH scouting (10 mM acetate buffer, pH 4.0, 4.5, 5.0, and 5.5), the appropriate buffer pH was determined, and then the recombinant TNF was immobilized on the CM5 chip (4000-5000 RU). In order to correct an effect of DMSO, a solvent correction standard was then prepared, and DMSO was added to the PBST buffer (1×PBS, pH 7.4, 0.05% Tween 20, 0.01% Triton X-100, 5% DMSO) in an amount of 5%. Then, Etanercept alone or in combination with the compounds was flowed into the chip (20 μl/min, 300 s) and dissolved (700 s), and the results of sensorgram were analyzed by a dedicated program. […] At this time, the running buffer was PBST buffer, the regeneration buffer was 10 mM glycine (pH 2.5), and the instrument was Biacore T200 (GE).

BALB/c mice = test: In vivo TNF neutralization assay (TNF/D-galactosamine-induced lethality); set-up: species or system mouse; conditions: 3.3, 16.5 mpk PO 30 minutes before challenge; 24 hours; concentration-dependent
Protocol: Treatment with TNF and a sensitizer D-galactosamine in an in vivo mouse model leads to death from acute liver failure. Thus, the compound of Example 61 (3.3 mpk or 16.5 mpk) was orally administered to BALB/c mice, and after 30 minutes, the mice were IP treated with the mixture of D-galactosamine (21 mg/mouse) and TNF (0.3 μg/mouse). Survival rates were observed and recorded every 3 hours up to 24 hours, and statistically analyzed by log-rank (Mantel-Cox) test using Prism 6 (GraphPad) (N=13/group, **P<0.005, ***P<0.001). mpk, mg/kg). This confirmed that the in vivo neutralization activity of the compounds binding to TNF in a TNF-induced lethality model.

biotinylated TNF = biological target: T1, biotinylated TNF (Homo sapiens, UniProt P01375); test: Flow cytometry: binding of biotinylated TNF to Raw 264.7 cells; format: cell-based, mouse; conditions: compound 800, 200, 5 μM, FACS, FIG. 3a
T1 construct: purchased R&D Systems NFTAO
T1 sequence (P01375 77-233 limits assumed): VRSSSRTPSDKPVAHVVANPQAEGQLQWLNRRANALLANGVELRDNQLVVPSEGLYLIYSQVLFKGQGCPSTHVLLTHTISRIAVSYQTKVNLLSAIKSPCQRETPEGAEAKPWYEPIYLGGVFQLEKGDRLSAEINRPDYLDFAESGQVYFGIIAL
Protocol: First, macrophage Raw 264.7 cells were prepared (4×10^6 cells/ml), and the biotinylated TNF alone or in combination with the 4-benzopyranone derivative compound (800, 200, 5 μM) was added to the cells and reacted (30 min, 4° C.). 10 μl of avidin-FITC reagent was then added and reacted in the dark (30 min, 4° C.). After washing with RDF1 buffer, FACS analysis was carried out (BD Canto). Human TNF-alpha Biotinylated Fluorokine Flow Cytometry Kit (Cat #: NFTAO) of R&D Systems was used in the experiment.

[1] = Cytotoxicity (CC50) in LM cells, MTT assay; format: cell-based; conditions: mouse, LM cells (mouse fibroblasts); 50% cytotoxic concentration
Protocol: First, the addition of recombinant TNF to mouse fibroblast LM cells induces cell death, and thus, by using the same, the TNF-neutralization bioassay was constructed. In other words, LM cells were pretreated with TNF (20 ng/ml) and the compounds synthesized in the above examples at various concentrations (5×10^4 cells/well), and a sensitizer actinomycin D ([…]) was added, and cultured in a CO2 incubator for 24 hours, and then the MTT assay was carried out. At this time, 10 μl of MTT (5 mg/ml stock) was added, reacted for 4 hours, and then dissolved in DMSO to measure the absorbance at 570 nm. First, the TNF cell death inhibition/neutralization action of TNF-target expected compounds at single concentration (50 or 10 μM) was measured. Second, IC50 values were determined by treating with the compounds having an excellent effect at different concentrations. The % inhibition of TNF was calculated using the following formula: % inhibition of TNF=(OD value of a group treated with TNF and compound−OD value of TNF treated group/(OD value of TNF untreated group−OD value of TNF treated group)×100.
IC50 values were statistically analyzed using Prism 6 (GraphPad) (IC50: 50% inhibitory concentration, CC50: 50% cytotoxic concentration).

TNF [2] = biological target: T2, TNF (Homo sapiens, UniProt P01375); test: TNF-neutralization bioassay: TNF-induced cell death of LM cells (MTT); format: cell-based
T2 sequence (P01375 77-233 limits assumed): as above
How it was run: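 Mouse fibroblast LM cells (5×10^4 cells/well) treated with TNF (20 ng/ml), compound and actinomycin D sensitizer for 24 h. Viability by MTT (4 h), absorbance at 570 nm. % TNF inhibition from OD relative to TNF-treated and untreated groups; IC50 and CC50 by Prism.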

TNF [3] = biological target: T2, TNF; test: SPR (Biacore T200) direct binding to immobilized TNF; conditions: TNF immobilized on CM5 chip, read-out: binding affinity (KD)
Protocol: The binding kinetics of TNF and 4-benzopyranone derivative compounds was measured by Surface Plasmon Resonance (SPR) method. First, based on the results of pH scouting (10 mM acetate buffer, pH 4.0, 4.5, 5.0, and 5.5), the appropriate buffer pH was determined, and then the recombinant TNF was immobilized on the CM5 chip (4000-5000 RU). In order to correct an effect of DMSO, a solvent correction standard was then prepared, and DMSO was added to the HBS-EP+ buffer (GE) in an amount of 5%. Then, the 4-benzopyranone derivative compounds were prepared depending on concentration, flowed into the chip (20 μl/min, 500 s), and dissolved (500 s), and the results of sensorgram were analyzed by a dedicated program to determine the affinity value (KD). At this time, the running buffer was HBS-EP+ buffer (GE), the regeneration buffer was 10 mM glycine (pH 2.5), and Biacore T200 (GE) was used as an analyzer.

DBA/1 mice = test: Therapeutic effect on rheumatoid arthritis, CIA mouse model; format: in vivo
Protocol: The CIA mouse model is a model in which arthritis is induced by collagen in DBA/1 mice. Thus, a 1:1 mixture of collagen type 2 and CFA was intradermally (ID) injected into the base of the tail of 8-week old DBA/1 mice. Two weeks after the primary immunization, a 1:1 mixture of collagen type 2 and IFA was intradermally (ID) injected into the base of the tail. After the second immunization, the pathology was measured twice a week, and the groups were divided equally so that the mean of the pathology of each group was 4 points. From Day 35 after the primary immunization, etanercept (4.5 mpk), adalimumab (1.2 mpk), the compound of Example 61 (25 mpk, 50 mpk, or 100 mpk) were orally administered three times a week, and the pathology was measured and recorded. The pathology score was measured as 1=inflammation and swelling of one toe, 2=inflammation of one or more toes or weak swelling of the whole sole of the foot, 3=severe swelling of the whole sole of the foot and swelling of ankle, 4=very severe inflammation and swelling of the whole foot or the bending and stiffness of foot (N=7 to 9/group, *P<0.01, **P<0.005, ***P<0.001).

Sequence of TNF-etanercept binding (P01375 77-233 limits assumed): as above

## O=C(O)c1c(-c2cc(F)ccc2F)oc2cc(Cl)ccc2c1=O [Example 61, 2-(2,5-difluorophenyl)-3-carboxy-7-chloro-(4H)-4-benzopyranone]
TNF-etanercept binding
  inhibition of TNF-etanercept binding: significantly inhibited the TNF-etanercept binding
BALB/c mice
  death of mice due to acute hepatotoxicity induced by D-galactosamine and TNF: inhibited
Biotinylated TNF
  inhibitory activity against TNF-cell binding: decreased the target cell binding of TNF to the basal level in a concentration-dependent manner
[1]
  CC50 at 24 h: > 50 µM
TNF [2]; compound 50 μM, TNF 20 ng/ml, actinomycin D, LM cells, 24 hours
  inhibition at 50 µM: 95.7%
TNF [2]; inhibition of TNF-induced LM cell death
  pIC50: 5.74
TNF [3]
  pKd: 5.84
DBA/1 mice; 25, 50 and 100 mpk PO three times a week, vs negative control
  therapeutic effect on rheumatoid arthritis (pathology score): remarkable therapeutic effect
DBA/1 mice; 25 mpk
  effect in comparison with etanercept: non-inferior effect
  efficacy in comparison with tofacitinib (25 mpk): considerably similar efficacy
